In PMC12147205, “Soybean Lectin Cross-Links Membranes by Binding Sulfatide in a Curvature-Dependent Manner” (Journal of Agricultural and Food Chemistry, 2025):
Where “and” joins values, the source holds several entries; their conditions need not be identical. Identical values can stand only once. Entries after “also recorded” stand apart in the source; their conditions may differ.

Assays:
soybean lectin [1] = target: T1, soybean lectin (Glycine max, UniProt P05046); test: SPR of lectin binding to sulfatide liposomes immobilized on L1 sensor chip; conditions: 0.4 μm liposomes, 10% sulfatide/90% DOPC; two-state reaction model; absence of GalNAc; read-out: KD (apparent), lectin to sulfatide liposomes
T1 construct: from tissue; host or cells: soybean meal (Glycine max seed meal)
Description: SPR data were collected using a BIAcore X100 instrument equipped with an L1 sensor chip (Cytiva) coated with 0.4 μm liposomes at room temperature. Liposomes contained 10% sulfatide and 90% DOPC, whereas liposomes without sulfatide were composed of 100% DOPC. All experiments were performed using a buffer consisting of 50 mM HEPES and 140 mM NaCl (pH 7.4). Pretreatment of the sensor chip was performed with 40 mM octyl β-D-glucopyranoside. Liposomes were immobilized onto the L1 sensor chip at a flow rate of 30 μL/min, achieving a typical loading of ∼5500 response units per sensor chip channel. Lectin was used as the analyte across the specified concentration range. […] Data were best fitted using a two-state reaction model, and the apparent K D values were estimated using BIAevaluation software, version 2.0 (Cytiva).

soybean lectin [2] = target: T1, soybean lectin; test: Isothermal titration calorimetry of GalNAc and analogs binding to soybean lectin; conditions: for Kd / KD: 50 mM HEPES, 20 mM CaCl2 pH 7, one set of sites model, N fixed to 4, NB = no binding detected (KD over 1–2 mM)
Description: Isothermal titration calorimetry (ITC) measurements were performed in a buffer containing 50 mM HEPES and 20 mM CaCl2 (pH 7). […] Each experiment was carried out in duplicate.

soybean lectin [3] = target: T1, soybean lectin; test: Lectin-mediated cross-linking of sulfatide-containing GUVs, confocal microscopy; conditions: 7.5 μM lectin; GalNAc at 200 times the lectin concentration
Description: Giant unilamellar vesicles (GUVs) were generated as described by Horger et al. Briefly, an agarose solution was prepared by dissolving 4 g of agarose in 100 mL of Milli-Q water. The solution was poured onto one side of a glass slide and allowed to dry. The glass slide was then placed on a hot plate set to 38 °C. A 30 μL stock solution of lipids (3.75 mg/mL) was prepared in a chloroform–methanol mixture, containing 10% sulfatides, 30% DOPC, 30% cholesterol, 28% DOPE, and 2% DOPE-F (GUV-containing sulfatide) or 33.3% DOPC, 33.3% cholesterol, 31.3% DOPE, and 2% DOPE-F (GUV-sulfatide free). This lipid mixture was spread over the agarose layer on the heated glass slide using another glass slide. The slide remained on the hot plate for a few minutes until the solvent evaporated. To remove residual solvent, the glass slide containing the agarose and lipid film was placed in a vacuum chamber for 20 min. GUVs were then generated by placing the prepared glass slide in a Petri dish and covering it with phosphate buffer saline. The GUV-lectin suspension was prepared with a final lectin concentration of 7.5 μM. […] Confocal microscopy was performed using a Nikon AXR point-scanning confocal system built around an inverted Ti2 Eclipse microscope. […] In some cases, a gamma adjustment of 0.9 was applied to enhance fluorescence localization differences within individual vesicles. […]

porcine trypsin = porcine trypsin (Sus scrofa, UniProt P00761); test: Binding of soybean meal trypsin inhibitors to porcine trypsin (Table S2)
[4] = ITC competition, lectin preincubated with sulfatide liposomes (10% sulfatide/90% DOPC)
[5] = ITC competition, lectin preincubated with sulfatide-free liposomes (100% DOPC)
[6] = TI from soybean meal line 17Ti-0204
[7] = TI from soybean meal line 17Ti-0242
[8] = TI from soybean meal line 17Ti-0332
[9] = TI from soybean meal line 17Ti-0534
[10] = TI from soybean meal line Glenn

Chain of porcine trypsin (P00761 9-231): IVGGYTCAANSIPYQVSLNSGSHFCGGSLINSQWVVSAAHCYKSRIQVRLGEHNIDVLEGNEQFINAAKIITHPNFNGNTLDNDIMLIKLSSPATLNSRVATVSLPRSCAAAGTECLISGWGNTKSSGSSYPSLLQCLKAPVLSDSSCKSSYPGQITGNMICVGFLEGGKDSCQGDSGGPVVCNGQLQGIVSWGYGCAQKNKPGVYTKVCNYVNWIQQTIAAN
T1 sequence (P05046 33-285): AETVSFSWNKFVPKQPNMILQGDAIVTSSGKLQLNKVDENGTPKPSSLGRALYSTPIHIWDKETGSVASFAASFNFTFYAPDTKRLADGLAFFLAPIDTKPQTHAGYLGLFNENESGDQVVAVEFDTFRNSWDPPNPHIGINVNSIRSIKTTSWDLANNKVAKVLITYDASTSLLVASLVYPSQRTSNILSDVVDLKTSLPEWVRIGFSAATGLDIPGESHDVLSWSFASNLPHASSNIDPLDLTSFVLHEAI

sulfatide was tested, and the Kd (soybean lectin [1]) was 0.264 ± 0.062 µM.

For `CO[C@H]1O[C@H](CO)[C@H](O)[C@H](O)[C@H]1NC(C)=O` [MGalNAc, Methyl-N-acetyl-2-deoxy-α-D-galactosamine], the Kd (soybean lectin [2]; ITC, 25 °C, read-out: KD) was 73 µM and 73.1 µM, the ΔG (soybean lectin [2]; ITC, 25 °C, pH 7) was “–5.7 ± 0 kcal/mol” and the ΔH (soybean lectin [2]; ITC, 25 °C, pH 7) was “–10.7 ± 0.1 kcal/mol”. For the same molecule, the “–TΔS” value (soybean lectin [2]; ITC, 25 °C, pH 7) was 5.0 ± 0.1 kcal/mol.

For `O=[N+]([O-])c1ccc(O[C@H]2O[C@H](CO)[C@@H](O)[C@H](O)[C@@H]2O)c(Cl)c1` [CNMP, 2-chloro-4-nitrophenyl-α-D-mannopyranoside], the KD (soybean lectin [2]; ITC, 25 °C) was “no detectable binding” and the Kd (soybean lectin [2]; ITC, 25 °C, read-out: KD) was > 1000 µM.

For `CC(=O)N[C@H]1[C@H]([C@H](O)[C@H](O)CO)O[C@@](OC[C@H]2O[C@@H](O[C@H]3[C@H](O)[C@@H](O)[C@H](O)O[C@@H]3CO)[C@H](O)[C@@H](O)[C@H]2O)(C(=O)O)C[C@@H]1O` [6-SL, 6′-Sialyl lactose], the KD (soybean lectin [2]; ITC, 25 °C) was “no detectable binding” and the Kd (soybean lectin [2]; ITC, 25 °C, read-out: KD) was > 1000 µM.

In the case of `O=[N+]([O-])c1ccc(O[C@H]2O[C@H](CO)[C@@H](O)[C@H](O)[C@@H]2O)cc1` [NPMP, 4-nitrophenyl-α-D-mannopyranoside], the KD (soybean lectin [2]; ITC, 25 °C) is reported as “no detectable binding” and the Kd (soybean lectin [2]; ITC, 25 °C, read-out: KD) is reported as > 1000 µM.

`CC(=O)N[C@@H]1[C@@H](O)[C@@H](O)[C@@H](CO)O[C@H]1O` [GalNAc, N-acetyl-D-galactosamine] was tested, and the ΔG (soybean lectin [2]; [4]) was “–5.6 ± 0 kcal/mol”, the ΔH (soybean lectin [2]; [4]) was “–9.9 ± 0.2 kcal/mol” and the “–TΔS” value (soybean lectin [2]; [4]) was 4.3 ± 0.2 kcal/mol. The ΔG (soybean lectin [2]; [5]) was “–5.6 ± 0 kcal/mol”, the ΔH (soybean lectin [2]; [5]) was “–9.9 ± 0.2 kcal/mol” and the “–TΔS” value (soybean lectin [2]; [5]) was 4.3 ± 0.2 kcal/mol. For the same molecule, the ΔG (soybean lectin [2]; ITC, 25 °C, pH 7) was “–5.8 ± 0 kcal/mol”, the “–TΔS” value (soybean lectin [2]; ITC, 25 °C, pH 7) was 4.5 kcal/mol and 4.5 ± 0.1 kcal/mol and the “effect on soybean lectin-mediated cross-linking of sulfatide-containing GUVs” value (soybean lectin [3]) was “inhibited; also recorded: reduced”.

In the case of `O=[N+]([O-])c1ccccc1OC1OC(CO)C(O)C(O)C1O` [NPGP, 2-Nitrophenyl-β-D-galactopyranoside], the “weaker affinity relative to GalNAc” value (soybean lectin [2]; ITC) is reported as ~10 fold, the ΔG (soybean lectin [2]; ITC, 25 °C, pH 7) is reported as “–4.3 ± 0 kcal/mol” and the ΔH (soybean lectin [2]; ITC, 25 °C, pH 7) is reported as “–9.8 ± 0.4 kcal/mol”. The “–TΔS” value (soybean lectin [2]; ITC, 25 °C, pH 7) was 5.5 ± 0.3 kcal/mol and the Kd (soybean lectin [2]; KD, ITC, 25 °C) was 789.5 ± 0.7 µM.

With `CCCCCCCCO[C@H]1O[C@H](CO)[C@@H](O)[C@H](O)[C@@H]1O` [OMP, Octyl-α-D-mannopyranoside] the KD (soybean lectin [2]; ITC, 25 °C) was “no detectable binding” and the Kd (soybean lectin [2]; ITC, 25 °C, read-out: KD) was > 1000 µM.

B1: BBTI: Birk and Bowman trypsin inhibitor isolated from soybean meal (protein)
chain: DDESSKPCCDQCACTKSNPPQCRCSDMRLNSCHSACKSCICALSYPAQCFCVDITDFCYEPCKPSEDDKEN
modifications: Native protein purified from soybean meal, probably a mixture of Bowman-Birk isoforms
Work on B1 yielded a Kd (porcine trypsin; [6]) of 0.1 µM, a Kd (porcine trypsin; [7]) of 0.1 ± 0.1 µM and a Kd (porcine trypsin; [8]) of 0.2 µM. It also gave a Kd (porcine trypsin; [9]) of 0.1 µM and a Kd (porcine trypsin; [10]) of 0.1 µM.

B2: KTI: Kunitz trypsin inhibitor isolated from soybean meal (protein)
chain: DFVLDNEGNPLENGGTYYILSDITAFGGIRAAPTGNERCPLTVVQSRNELDKGIGTIISSPYRIRFIAEGHPLSLKFDSFAVIMLCVGIPTEWSVVEDLPEGPAVKIGENKDAMDGWFRLERVSDDEFNNYKLVFCPQQAEDDKCGDIGISIDHDDGTRRLVVSKNKPLVVQFQKLDKESL
modifications: Native protein purified from soybean meal
In the case of B2, the Kd (porcine trypsin; [6]) is reported as 9 ± 2 µM, the Kd (porcine trypsin; [7]) is reported as 2.4 ± 0.3 µM and the Kd (porcine trypsin; [8]) is reported as 1.2 ± 0.1 µM. For the same molecule, the Kd (porcine trypsin; [9]) was 2.4 ± 0.1 µM and the Kd (porcine trypsin; [10]) was 1.1 ± 0.4 µM.
